Data published in patent US11033539B2, “Compounds of formulas (VII), (VIII), (IX), (XI), (XII), (XIII), and (XIV) as muscarinic receptor 4(M4) antagonists for treating neurological diseases” (Neurocrine Biosciences, Inc., priority 2015, dated 2021).

Key:
[1] = molecular target: human M1 receptor (Homo sapiens (Human), UniProt P11229); assay: Radioligand (tritiated N-methylscopolamine) binding assay, M1; settings: CHO cell membranes expressing human M1; 1.5 nM tritiated N-methylscopolamine; 90 min, 37° C.; read-out: Ki against M1 receptor (Table 21, M1)
human M1 receptor, sequence (P11229 whole entry): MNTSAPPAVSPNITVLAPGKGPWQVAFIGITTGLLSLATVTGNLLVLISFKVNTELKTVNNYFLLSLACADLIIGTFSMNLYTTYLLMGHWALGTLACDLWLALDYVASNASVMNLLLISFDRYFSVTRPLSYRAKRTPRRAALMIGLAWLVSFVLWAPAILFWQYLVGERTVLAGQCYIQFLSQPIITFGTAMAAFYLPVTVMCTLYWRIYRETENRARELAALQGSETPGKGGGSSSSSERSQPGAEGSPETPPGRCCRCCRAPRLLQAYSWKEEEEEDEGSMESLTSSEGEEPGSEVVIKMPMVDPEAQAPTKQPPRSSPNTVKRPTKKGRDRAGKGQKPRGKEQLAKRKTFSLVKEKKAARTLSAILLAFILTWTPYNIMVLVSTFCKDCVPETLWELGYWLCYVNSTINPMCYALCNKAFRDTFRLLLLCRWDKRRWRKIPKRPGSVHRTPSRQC
Description: (§1) Binding affinity (Ki) of compounds was measured by inhibition of radioligand binding to membranes from CHO cells expressing human M1, M2, M3, M4 and M5 receptors. Membranes were prepared by nitrogen cavitation and differential centrifugation as previously described (Hoare et al., Mol. Pharmacol. 2003 March; 63(3): 751-65). The radioligand employed was tritiated N-methylscopolamine, used at a concentration of 1.5 nM. A dose-response of twelve concentrations of compound was used, ranging from 10 μM to […]. The assay buffer was 50 mM HEPES, 100 mM NaCl, 5 mM MgCl2, 1 mM ethylenediaminetetraacetic acid, pH-adjusted to pH 7.4. Membranes, radioligand and compound were incubated together for 90 minutes at 37° C., in a total volume of 150 μl in a 96-well plate. Receptor-bound radioligand was then collected by harvesting the assay over glass fiber filters pretreated with polyethylenimine to trap the cell membranes, using rapid vacuum filtration. Harvesting and radioactivity counting was conducted as previously described (see, e.g., Hoare et al., Mol. Pharmacol. 2003 63(3):751-65); Erratum at Mol. Pharmacol. 2005 July; 68(1): 260).

[2] = molecular target: human M2 receptor (Homo sapiens (Human), UniProt P08172); assay: Radioligand (tritiated N-methylscopolamine) binding assay, M2; settings: CHO cell membranes expressing human M2; 1.5 nM tritiated N-methylscopolamine; 90 min, 37° C.; read-out: Ki against M2 receptor (Table 21, M2)
human M2 receptor, sequence (P08172 whole entry): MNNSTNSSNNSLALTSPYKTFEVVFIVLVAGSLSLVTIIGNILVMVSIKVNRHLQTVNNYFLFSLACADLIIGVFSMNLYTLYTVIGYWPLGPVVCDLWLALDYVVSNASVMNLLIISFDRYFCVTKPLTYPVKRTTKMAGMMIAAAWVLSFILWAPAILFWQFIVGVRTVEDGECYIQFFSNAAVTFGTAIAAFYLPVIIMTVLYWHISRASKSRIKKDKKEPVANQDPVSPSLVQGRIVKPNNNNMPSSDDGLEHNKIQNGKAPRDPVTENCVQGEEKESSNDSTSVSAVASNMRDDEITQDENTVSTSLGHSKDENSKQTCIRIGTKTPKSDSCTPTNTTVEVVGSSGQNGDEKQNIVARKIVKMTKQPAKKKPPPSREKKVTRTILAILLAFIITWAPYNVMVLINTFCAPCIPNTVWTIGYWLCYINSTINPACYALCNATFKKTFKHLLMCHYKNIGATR
Description: as §1

[3] = molecular target: human M4 receptor (Homo sapiens (Human), UniProt P08173); assay: Radioligand (tritiated N-methylscopolamine) binding assay, M4; settings: Ki against the M4 receptor; membranes from CHO cells expressing human M4; tritiated N-methylscopolamine 1.5 nM; read-out: Ki
human M4 receptor, sequence (P08173 whole entry): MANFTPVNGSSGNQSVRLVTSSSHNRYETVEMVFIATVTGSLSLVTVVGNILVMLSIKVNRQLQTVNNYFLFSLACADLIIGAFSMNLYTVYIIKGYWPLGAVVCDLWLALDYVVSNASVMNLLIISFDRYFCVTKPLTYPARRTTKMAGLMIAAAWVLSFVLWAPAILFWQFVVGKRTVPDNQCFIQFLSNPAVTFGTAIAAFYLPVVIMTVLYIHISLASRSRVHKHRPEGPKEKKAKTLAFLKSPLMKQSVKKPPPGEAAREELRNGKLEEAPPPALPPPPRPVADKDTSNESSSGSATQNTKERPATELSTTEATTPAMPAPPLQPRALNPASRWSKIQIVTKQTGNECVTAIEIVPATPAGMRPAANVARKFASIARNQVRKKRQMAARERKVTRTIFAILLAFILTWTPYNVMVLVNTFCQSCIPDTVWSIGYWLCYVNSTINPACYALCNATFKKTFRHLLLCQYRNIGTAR
Procedure, shortened: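 Ki values come from displacement of 1.5 nM radioligand from membranes of receptor-expressing CHO cells, with filter-trapped radioactivity counted after rapid vacuum filtration. Twelve compound concentrations (10 μM to […]) were incubated for 90 min at 37 °C at pH 7.4.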

[4] = molecular target: human M5 receptor (Homo sapiens (Human), UniProt P08912); assay: Radioligand (tritiated N-methylscopolamine) binding assay, M5; settings: CHO cell membranes expressing human M5; 1.5 nM tritiated N-methylscopolamine; 90 min, 37° C.; read-out: Ki against M5 receptor (Table 21, M5)
human M5 receptor, sequence (P08912 whole entry): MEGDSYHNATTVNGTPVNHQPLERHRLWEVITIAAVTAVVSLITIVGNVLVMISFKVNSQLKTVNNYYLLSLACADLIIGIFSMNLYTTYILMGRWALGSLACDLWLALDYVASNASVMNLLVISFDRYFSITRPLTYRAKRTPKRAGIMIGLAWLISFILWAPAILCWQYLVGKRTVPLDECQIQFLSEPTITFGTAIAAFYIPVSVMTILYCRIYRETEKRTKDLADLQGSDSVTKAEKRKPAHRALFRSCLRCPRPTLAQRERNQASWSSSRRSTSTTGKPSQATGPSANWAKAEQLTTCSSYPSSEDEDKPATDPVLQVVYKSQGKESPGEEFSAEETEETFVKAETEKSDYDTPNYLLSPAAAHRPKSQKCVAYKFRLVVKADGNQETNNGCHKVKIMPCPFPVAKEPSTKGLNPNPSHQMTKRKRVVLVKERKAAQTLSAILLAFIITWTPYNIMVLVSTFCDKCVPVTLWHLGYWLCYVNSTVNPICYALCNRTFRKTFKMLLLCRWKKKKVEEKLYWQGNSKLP
Description: as §1

[5] = molecular target: human M3 receptor (Homo sapiens (Human), UniProt P20309); assay: Radioligand (tritiated N-methylscopolamine) binding assay, M3; settings: CHO cell membranes expressing human M3; 1.5 nM tritiated N-methylscopolamine; 90 min, 37° C.; read-out: Ki against M3 receptor (Table 21, M3)
human M3 receptor, sequence (P20309 whole entry): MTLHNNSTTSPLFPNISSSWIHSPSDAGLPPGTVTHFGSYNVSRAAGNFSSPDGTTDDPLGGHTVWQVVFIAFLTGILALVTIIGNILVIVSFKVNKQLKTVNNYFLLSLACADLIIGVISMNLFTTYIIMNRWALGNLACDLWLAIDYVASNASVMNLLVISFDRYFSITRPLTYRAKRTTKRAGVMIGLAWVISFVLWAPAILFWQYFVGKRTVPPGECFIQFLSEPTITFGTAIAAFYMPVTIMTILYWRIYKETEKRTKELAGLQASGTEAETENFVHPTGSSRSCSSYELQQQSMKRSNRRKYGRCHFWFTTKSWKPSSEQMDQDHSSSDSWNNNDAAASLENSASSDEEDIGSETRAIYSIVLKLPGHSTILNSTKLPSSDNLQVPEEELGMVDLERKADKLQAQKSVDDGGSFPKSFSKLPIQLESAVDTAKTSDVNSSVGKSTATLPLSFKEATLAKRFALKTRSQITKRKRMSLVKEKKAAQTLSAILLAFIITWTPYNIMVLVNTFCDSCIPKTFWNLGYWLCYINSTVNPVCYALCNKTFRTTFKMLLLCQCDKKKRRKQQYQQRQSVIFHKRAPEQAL
Description: as §1

| Ki [1] [nM] | Ki [2] [nM] | Ki [3] [nM] | Ki [4] [nM] | Structure (SMILES) | Ki [5] [nM] |
| --- | --- | --- | --- | --- | --- |
| 100 to 1000 | 100 to 1000 | < 10 | – | C[C@@H]1CN(c2ncc(C#N)c(N)n2)C[C@H](C)N1C(=O)NCCC1CCN(Cc2ccccc2)CC1 [5-14, (2S,6R)-4-(4-amino-5-cyanopyrimidin-2-yl)-N-[2-(1-benzylpiperidin-4-yl)ethyl]-2,6-dimethylpiperazine-1-carboxamide] | – |
| > 1000 | 100 to 1000 | < 10 | > 1000 | C[C@@H]1CN(c2nccc(C#N)n2)C[C@H](C)N1C(=O)NCCC1CCN(Cc2ccccc2)CC1 [4-14, (2S,6R)-N-[2-(1-benzylpiperidin-4-yl)ethyl]-4-(4-cyanopyrimidin-2-yl)-2,6-dimethylpiperazine-1-carboxamide] | – |
| 100 to 1000 | 100 to 1000 | < 10 | > 1000 | C[C@@H]1CN(c2cccc(OC(F)(F)F)c2)CCN1C(=O)NCCC1CCN(Cc2ccccc2)CC1 [4-16, (2R)-N-[2-(1-benzylpiperidin-4-yl)ethyl]-2-methyl-4-[3-(trifluoromethoxy)phenyl]piperazine-1-carboxamide] | – |
| 100 to 1000 | 100 to 1000 | – | > 1000 | C[C@@H]1CN(c2ncc(C#N)c(N)n2)C[C@H](C)N1C(=O)NCCC1CCN(Cc2ccccc2)CC1 [4-54, (2S,6R)-4-(4-amino-5-cyanopyrimidin-2-yl)-N-[2-(1-benzylpiperidin-4-yl)ethyl]-2,6-dimethylpiperazine-1-carboxamide] | > 1000 |
| 100 to 1000 | 100 to 1000 | < 10 | > 1000 | C[C@@H]1CN(c2cc(F)cc(F)c2)CCN1C(=O)NCCC1CCN(Cc2ccccc2)CC1 [4-72, (2R)-N-[2-(1-benzylpiperidin-4-yl)ethyl]-4-(3,5-difluorophenyl)-2-methylpiperazine-1-carboxamide] | – |
| – | – | – | – | C[C@@H]1CN(c2ncc(C(F)(F)F)cn2)CCN1C(=O)NCCC1CCN(Cc2ccccc2)CC1 [21-14, (2R)-2-methyl-N-(2-{1-[α,α-^2H-benzyl]piperidin-4-yl}ethyl)-4-[5-(trifluoromethyl)pyrimidin-2-yl]piperazine-1-carboxamide] | 100 to 1000 |
| 100 to 1000 | 10 to 100 | < 10 | > 1000 | C[C@@H]1CN(c2ccc3c(c2)OC(F)(F)O3)CCN1C(=O)NCCC1CCN(Cc2ccccc2)CC1 [4-6, (2R)-N-[2-(1-benzylpiperidin-4-yl)ethyl]-4-(2,2-difluoro-2H-1,3-benzodioxol-5-yl)-2-methylpiperazine-1-carboxamide] | – |

| Structure (SMILES) | Ki [1] [nM] | Ki [2] [nM] | Ki [3] [nM] | Ki [4] [nM] | Ki [5] [nM] |
| --- | --- | --- | --- | --- | --- |
| C[C@@H]1CN(c2ncc(C(F)(F)F)c(N)n2)CCN1C(=O)NCCC1CCN(Cc2ccccc2)CC1 [21-16, (2R)-4-[4-amino-5-(trifluoromethyl)pyrimidin-2-yl]-2-methyl-N-(2-{1-[α,α-^2H-benzyl]piperidin-4-yl}ethyl)piperazine-1-carboxamide] | – | < 10 | < 10 | 100 to 1000 | 10 to 100 |
| C[C@@H]1CN(c2ncc(C(F)(F)F)c(N)n2)CCN1C(=O)NCCC1CCN(Cc2ccccc2)CC1 [21-17, (2R)-4-[4-amino-5-(trifluoromethyl)pyrimidin-2-yl]-2-methyl-N-(2-{1-[α,α-^2H-benzyl]piperidin-4-yl}ethyl)piperazine-1-carboxamide] | – | < 10 | < 10 | 100 to 1000 | 10 to 100 |
| C[C@@H]1CN(c2ncc(C#N)cn2)C[C@H](C)N1C(=O)NCCC1CCN(Cc2ccccc2)CC1 [21-2, (2R,6S)-4-(5-cyanopyrimidin-2-yl)-2,6-dimethyl-N-(2-{1-[α,α-^2H-benzyl]piperidin-4-yl}ethyl)piperazine-1-carboxamide] | > 1000 | – | < 10 | > 1000 | > 1000 |
| C[C@@H]1CN(c2ncc(C#N)cn2)C[C@H](C)N1C(=O)NCCC1CCN(Cc2ccccc2)CC1 [21-15, (2R,6S)-4-(5-cyanopyrimidin-2-yl)-2,6-dimethyl-N-(2-{1-[α,α-^2H-benzyl]piperidin-4-yl}ethyl)piperazine-1-carboxamide] | > 1000 | – | < 10 | > 1000 | > 1000 |
